# Assay results as given in patent US11780901B2, “Analogues of parathyroid hormone (1-34) that function as agonists of the parathyroid hormone receptor-1 and display modified activity profiles” (Wisconsin Alumni Research Foundation, priority 2013, dated 2023).
# Numbering of substitutions follows the chain as printed. Where two headings read alike, the source gives them in different places.
# Assays:
# [1] = biological target: T1, PTHR1-1363Y (Homo sapiens, UniProt Q03431, I363Y); experiment: Activation of PTHR1 mutant PTHR1-1363Y; format: cell-based; details: data not shown
# T1 construct: expressed in transfected cells
# T1 sequence (Q03431 27-593 I363Y): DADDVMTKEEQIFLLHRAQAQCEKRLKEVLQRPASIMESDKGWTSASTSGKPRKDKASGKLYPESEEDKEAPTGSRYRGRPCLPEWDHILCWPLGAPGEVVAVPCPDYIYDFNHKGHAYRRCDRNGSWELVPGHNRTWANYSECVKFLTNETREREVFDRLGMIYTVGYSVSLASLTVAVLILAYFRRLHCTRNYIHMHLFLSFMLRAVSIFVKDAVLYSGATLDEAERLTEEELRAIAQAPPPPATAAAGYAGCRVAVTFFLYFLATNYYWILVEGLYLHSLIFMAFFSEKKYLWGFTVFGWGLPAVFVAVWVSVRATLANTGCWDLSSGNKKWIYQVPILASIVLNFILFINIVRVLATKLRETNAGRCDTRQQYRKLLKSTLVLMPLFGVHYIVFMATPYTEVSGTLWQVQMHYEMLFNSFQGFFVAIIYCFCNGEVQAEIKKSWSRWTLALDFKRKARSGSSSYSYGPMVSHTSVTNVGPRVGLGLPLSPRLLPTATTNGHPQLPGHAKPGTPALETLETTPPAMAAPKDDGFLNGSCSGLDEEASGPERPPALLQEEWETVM
# Excerpt: Reciprocal point mutations of PTHR1 were investigated to see if they would enhance the signaling activity of PTHR2-selective agonists.
# [2] = biological target: T2, PTHR2 (Homo sapiens, UniProt P49190); experiment: PTHR2 activation, cAMP production (GloSensor) in HEK293 cells; format: cell-based; design: expressed in transfected cells; details: for Emax: HEK293
# T2 sequence (P49190 25-550): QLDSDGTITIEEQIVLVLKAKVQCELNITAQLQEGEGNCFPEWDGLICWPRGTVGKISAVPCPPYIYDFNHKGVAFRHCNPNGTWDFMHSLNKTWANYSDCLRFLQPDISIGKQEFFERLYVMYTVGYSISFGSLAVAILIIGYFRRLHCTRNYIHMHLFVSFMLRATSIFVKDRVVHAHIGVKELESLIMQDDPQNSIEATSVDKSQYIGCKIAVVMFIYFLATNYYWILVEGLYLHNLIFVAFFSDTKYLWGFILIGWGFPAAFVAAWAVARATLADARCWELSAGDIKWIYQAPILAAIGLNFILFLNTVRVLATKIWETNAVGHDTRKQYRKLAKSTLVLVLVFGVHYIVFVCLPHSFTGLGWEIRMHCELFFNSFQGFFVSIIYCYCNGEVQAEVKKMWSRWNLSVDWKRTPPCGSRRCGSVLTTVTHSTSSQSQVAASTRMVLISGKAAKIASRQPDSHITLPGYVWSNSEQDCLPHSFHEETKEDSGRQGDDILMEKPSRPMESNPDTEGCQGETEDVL
# In short: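 HEK293 cells stably expressing PTHR2; receptor activation read as cAMP production by GloSensor luminescence. Dose-response curves fit with a four-parameter sigmoidal equation; data are mean±s.e.m. of four independent measurements.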
# [3] = biological target: T2, PTHR2; experiment: Wash-out assay, duration of PTHR2 activation; format: cell-based; design: expressed in transfected cells; host or cells: cells stably expressing PTHR2; details: for Normalized ligand-off AUC: PTHR2, after washout, PTH(1-34)-NH2 = 100; for Emax: read-out: Normalized ligand-on Emax
# Excerpt: (§1) Duration of activation for PTHR1 and PTHR2. To assess the duration of PTHR1 and PTHR2 activation induced by α/β-peptides 14 and 15, the time course of cAMP production by each receptor was examined after stimulation with an agonist and subsequent washing of the cells to remove unbound peptide (wash-out assay). […] During the initial “ligand-on” phase, cells stably expressing PTHR1 or PTHR2 were stimulated with an agonist concentration corresponding to ˜EC80; the medium contained D-luciferin. […] After the addition of fresh medium containing D-luciferin, the luminescence decay is measured. The area under the “ligand-off” curve (AUC) reflects the duration of signaling, which may be related to residence time of the agonist on the receptor but could have other origins at the molecular level.
# [4] = biological target: T3, PTHR1 (Homo sapiens, UniProt Q03431); experiment: PTHR1 activation, cAMP production (GloSensor) in HEK293 cells; format: cell-based; design: expressed in transfected cells; details: for Emax: HEK293
# T3 sequence (Q03431 27-593): T1 sequence (Q03431 27-593 I363Y) with Y337I
# [5] = system: PTHR1; experiment: β-arr1 | pEC50
# [6] = system: PTHR1; experiment: β-arr2 | pEC50
# [7] = system: PTHR1; experiment: cAMP | pEC50
# Excerpt: Table printed on a drawing sheet, FIG. 2
# (§2) Head of the field: cAMP | pEC50
# First copying reader's note: The error (±) stands inside the result cells.
# [8] = biological target: T3, PTHR1; experiment: Wash-out assay, duration of PTHR1 activation; format: cell-based; design: expressed in transfected cells; host or cells: cells stably expressing PTHR1
# Excerpt: as §1
# [9] = system: PTHR1; experiment: β-arr2 | pEC50; remark: listed apart in the source
# [10] = system: PTHR1; experiment: β-arr1 | pEC50; remark: listed apart in the source
# [11] = system: PTHR1; experiment: cAMP | pEC50; remark: listed apart in the source
# Excerpt: Table printed on a drawing sheet, FIG. 5
# as §2
# The patent's description of the figure: FIG. 5 depicts graphs and a corresponding table reporting the EC50 and Emax of PTHR1 agonists Ligands 8-13 (SEQ. ID. NOS: 8-13) for cAMP signaling and β-arrestin (βarr) recruitment.
# First copying reader's note: Each value cell carries its own ± error; the rows for Ligand 8, 10 and 12 are printed on dark shading.
# Where the first naming reader finds the target: description_of_the_figure: EC50 and Emax of PTHR1 agonists Ligands 8-13 (SEQ. ID. NOS: 8-13) for cAMP signaling and β-arrestin (βarr) recruitment.
β-arr2 | pEC50 [9],β-arr1 | pEC50 [10],cAMP | pEC50 [11],Compound,Emax [2] [%],Emax [3] [%],Emax [4] [%],β-arr1 | pEC50 [5],β-arr2 | pEC50 [6],cAMP | pEC50 [7],also measured
,,,CC[C@H](C)[C@H](NC(=O)[C@H](CCC(=O)O)NC(=O)[C@H](CO)NC(=O)[C@@H](CNC(=O)[C@@H](N)CO)C(C)C)C(=O)N[C@@H](CCC(N)=O)CC(=O)N[C@@H](CC(C)C)C(=O)N[C@@H](CCSC)C(=O)N[C@@H](Cc1c[nH]cn1)C(=O)N[C@@H](CC(N)=O)C(=O)N[C@@H](CC(C)C)C(=O)NCC(=O)N[C@@H](CCCCN)C(=O)N[C@@H](Cc1c[nH]cn1)C(=O)N[C@@H](CC(C)C)C(=O)N[C@@H](CC(N)=O)C(=O)N[C@@H](CO)C(=O)N[C@@H](CCSC)C(=O)N[C@@H](CCC(=O)O)C(=O)N[C@@H](CCCNC(=N)N)C(=O)N[C@H](C(=O)N[C@@H](CCC(=O)O)C(=O)N[C@@H](Cc1c[nH]c2ccccc12)C(=O)N[C@@H](CC(C)C)C(=O)N[C@@H](CCCNC(=N)N)C(=O)N[C@@H](CCCCN)C(=O)N[C@@H](CCCCN)C(=O)N[C@@H](CC(C)C)C(=O)N[C@@H](CCC(N)=O)C(=O)N[C@@H](CC(=O)O)C(=O)N[C@H](C(=O)N[C@@H](Cc1c[nH]cn1)C(=O)N[C@@H](CC(N)=O)C(=O)N[C@@H](Cc1ccccc1)C(N)=O)C(C)C)C(C)C [Ligand 15],104 ± 2,103 ± 1,79 ± 6,,,,agonist activity at PTHR1-1363Y (in words) [1]: even less susceptible to activation; Normalized ligand-off AUC ([3]; listed as α/β-peptide 1): 197 ± 16; Normalized ligand-off AUC ([3]; listed as α/β-peptide 15): more prolonged signaling; PTHR1 agonist potency decline ([4]; relative to PTH(1-34)-NH2): ~100 fold
,,,BA058: also known as abaloparatide,,,,8.38 ± 0.12,8.52 ± 0.06,10.05 ± 0.05,
,,,"CC[C@H](C)[C@H](NC(=O)[C@H](CCC(=O)O)NC(=O)[C@H](CO)NC(=O)[C@@H](NC(=O)[C@@H](N)CO)C(C)C)C(=O)N[C@@H](CCC(N)=O)C(=O)N[C@@H](CC(C)C)C(=O)N[C@@H](CCSC)C(=O)N[C@@H](Cc1c[nH]cn1)C(=O)N[C@@H](CC(N)=O)C(=O)N[C@@H](CC(C)C)C(=O)NCC(=O)N[C@@H](CCCCN)C(=O)N[C@@H](Cc1c[nH]cn1)C(=O)N[C@@H](CC(C)C)C(=O)N[C@@H](CC(N)=O)C(=O)N[C@@H](CO)C(=O)N[C@@H](CCSC)C(=O)N[C@@H](CCC(=O)O)C(=O)N[C@@H](CCCNC(=N)N)C(=O)N[C@H](C(=O)N[C@@H](CCC(=O)O)C(=O)N[C@@H](Cc1c[nH]c2ccccc12)C(=O)N[C@@H](CC(C)C)C(=O)N[C@@H](CCCNC(=N)N)C(=O)N[C@@H](CCCCN)C(=O)N[C@@H](CCCCN)C(=O)N[C@@H](CC(C)C)C(=O)N[C@@H](CCC(N)=O)C(=O)N[C@@H](CC(=O)O)C(=O)N[C@H](C(=O)N[C@@H](Cc1c[nH]cn1)C(=O)N[C@@H](CC(N)=O)C(=O)N[C@@H](Cc1ccccc1)C(N)=O)C(C)C)C(C)C [PTH(1-34)-NH2, reference compound]",100,100,100,,,,"EC50 ([2]; HEK-293 cells, GloSensor cAMP, read-out: EC50 (nM) of PTHR2 Activation): 0.97 nM; EC50 ([2]; Table 5, HEK293 cells stably expressing PTHR2, read-out: PTHR2 EC50): 1.07 ± 0.14 nM; Normalized ligand-off AUC [3]: 100; Normalized ligand-off AUC ([8]; PTHR1, after washout, PTH(1-34)-NH2 = 100): 100; Emax ([8]; read-out: Normalized ligand-on Emax): 100%"
8.28 ± 0.02,8.33 ± 0.05,9.03 ± 0.10,SVSEIQL^nLHNLGKHLNSMERVEWLRKKLQDVHNF (SVSEIQLXHNLGKHLNSMERVEWLRKKLQDVHNF; (R)-beta2-Nle at position 8; MOD_RES (8)..(8) X at position 8 is (R)-Beta-2-Norleucine.) [Ligand 11],,,,,,,
,,,"LA-PTH: long-acting PTH analog (AVAEIQLMHQRAKWIQDARRRAFLHKLIAEIHTAEI; Long-acting (LA)-PTH, a parathyroid hormone analog)",,,,8.16 ± 0.06,8.20 ± 0.06,9.06 ± 0.06,
8.16 ± 0.09,8.03 ± 0.10,9.44 ± 0.08,Ligand 13: PTH(1-34) analogue with replaced residue at position 8 (character image) (SVSEIQLXHNLGKHLNSMERVEWLRKKLQDVHNF; non-natural residue at position 8; MOD_RES (8)..(8) X at position 8 is (S*)-Beta-2-Norleucine),,,,,,,
